Source: publication PMC9132363 (Journal of Medicinal Chemistry, 2022)
Like-named read-outs stand apart in the source and are kept apart here.

Experiments:
[1] = DPPH radical scavenging assay; format: physicochemical
Method: The antioxidant activity was determined by the 2,2-diphenyl-1-picrylhydrazyl hydrate (DPPH) assay.[65]−[67] All the measurements were performed in an 80% MeOH solution, with the final reaction volume being 3 mL. A stock of DPPH solution in DMSO (10^–2 M) was prepared and stored at −20 °C, and the same procedure was performed with the antioxidant solution. Then, the DPPH stock solution was diluted to 2 mL with a final concentration of 150 μM (final volume of 3 mL and final concentration of 100 μM). The antioxidant stock was sequentially diluted to 1 mL at 3, 9, 30, 90, and 300 μM (final volume of 3 mL and final concentrations of 1, 3, 10, 30, and 100 μM). The mixture was incubated at room temperature for 30 min. Once this time had passed, the absorbance was measured in a spectrophotometer at 517 nm. Trolox, caffeic acid, and ferulic acid were used as a standard (1, 3, 10, 30, and 100 μM final concentrations). A blank using 80% MeOH solution instead of the corresponding antioxidant was used in each assay. Two independent measurements of each sample were performed. Data were processed using Origin software, and sigmoidal fitting according to the DoseResp function was performed to extrapolate the IC50 (μM) of each antioxidant.

[2] = target: GSK-3β (Homo sapiens, UniProt P49841); assay: GSK-3β kinase inhibition; format: biochemical
[3] = test system: sALS lymphoblasts; assay: NRF2 pathway in sALS lymphoblasts; format: cell-based, human; conditions: 20 μM, 24 h, vs untreated sALS lymphoblasts
Source text: (§1) Peripheral blood samples of all the individuals enrolled in this study were collected after written informed consent of the patients or their relatives (demographic information is presented in Table 9) to establish the lymphoblastoid cell lines (LCLs), by infecting peripheral blood lymphocytes with the Epstein–Barr virus (EBV), as previously described.[68] Participants or their relatives gave written informed consent. This study was approved by the Hospital Doce de Octubre and the Spanish Council of Higher Research Institutional Review Boards. All patients were diagnosed by applying the revised El Escorial criteria.[69] […] Genetic testing for SOD1, TARDBP, FUS, and C9ORF72 was performed in all cases.
(§2) LCLs were grown in suspensions in T flasks, in an RPMI-1640 medium containing 2 mM L-glutamine, 100 μg/mL streptomycin/penicillin, and 10% (v/v) fetal bovine serum (FBS) and maintained in a humidified 5% CO2 incubator at 37 °C.
(§3) Whole cell lysates were prepared in RIPA-buffer (25 mM Tris-HCl, pH 7.6, 150 mM NaCl, 1 mM EGTA, 1% Igepal, 1% sodium deoxycholate, 0.1% SDS, 1 mM PSMF, 1 mM Na3VO4, 1 mM NaF, 1 μg/mL aprotinin, 1 μg/mL leupeptin, and 1 μg/mL pepstatin). […] Immunoblots were analyzed as described previously.[48] […]
(§4) Total RNA extraction, reverse transcription, and quantitative polymerase chain reaction (PCR) were done as detailed in previous articles.[72] […]

[4] = test system: SOD1-ALS lymphoblasts; assay: NRF2 pathway in SOD1-ALS lymphoblasts; format: cell-based, human; conditions: 20 μM, 24 h
Source text: as §1, §2, §3, §4

[5] = test system: control lymphoblasts; assay: NRF2 pathway in control lymphoblasts; format: cell-based, human; conditions: 20 μM, 24 h
Source text: as §1, §2, §3, §4

[6] = test system: NRF2; assay: 3×ARE-LUC luciferase reporter assay; format: cell-based, human
Method: Transient transfections of HEK293T cells were performed with the expression vectors for TK-Renilla (Promega, Madison, […]) and the expression vector ARE-LUC (Dr. J. Alam, Dept. of Molecular Genetics, Ochsner Clinic Foundation, New Orleans, LA). Cells were seeded on 24-well plates (75,000 cells per well), cultured for 16 h, and transfected using calcium phosphate. Eight hours after transfections, cells were treated with 3 different concentrations of the compounds (6, 20, and 60 μM). […] After 16 h, the cells were lysed and assayed with a dual-luciferase assay system (Promega) according to the manufacturer’s instructions. Relative light units were measured in a GloMax 96 microplate luminometer with dual injectors (Promega).

[7] = test system: HMOX1/HO-1 and NQO1 in SH-SY5Y cells; assay: NRF2 signature (qRT-PCR and immunoblot) in SH-SY5Y cells; format: cell-based
Method: Whole cell lysates were prepared in RIPA-buffer (25 mM Tris-HCl, pH 7.6, 150 mM NaCl, 1 mM EGTA, 1% Igepal, 1% sodium deoxycholate, 0.1% SDS, 1 mM PSMF, 1 mM Na3VO4, 1 mM NaF, 1 μg/mL aprotinin, 1 μg/mL leupeptin, and 1 μg/mL pepstatin). Whole cell lysates, cytosolic and nuclear fractions containing 25 μg of whole proteins from SH-SY5Y, or lymphoblast-treated cells were loaded for SDS-PAGE electrophoresis. Immunoblots were analyzed as described previously.[48] The primary antibodies used are described in Supporting Information Table S4.
Total RNA extraction, reverse transcription, and quantitative polymerase chain reaction (PCR) were done as detailed in previous articles.[72] Primer sequences are shown in Supporting Information Table S5. Data analysis was based on the ΔΔCT method with normalization of the raw data to housekeeping genes (Applied Biosystems). All PCRs were performed in triplicates.

[8] = MTT viability assay; format: cell-based, human; conditions: human, HEK293T cells, HEK293T, 16 h, read-out: Cell viability (MTT)
Method: (§5) HEK293T cells were plated in 24-well culture plates (75,000 cells/well) and incubated in a CO2 incubator. The next day, treatment was given according to the experimental requirement. Sixteen hours later, 50 μL of MTT solutions from the stock (5 mg/mL) was added, and cells were incubated in a CO2 incubator in the dark for 2 h. The medium was removed, and formazan crystals formed by the cells were dissolved using 500 μL of DMSO followed by transfer in 96-well plates. The absorbance was read at a 570 nm wavelength on a multiwell plate reader.[70]

[9] = test system: HEK293T cells; assay: MTT viability assay; format: cell-based, human; conditions: 20 µM, Table S3
Method: as §5

[10] = test system: TDP-43 in lymphoblasts from ALS patients; assay: TDP-43 phosphorylation and expression in lymphoblasts (immunoblot); format: cell-based, human; conditions: 20 µM, 24 hours
Method: Figure S1. Lack of effect of compound 1d against aberrant TDP-43 phosphorylation in sporadic ALS and […]
Representative immunoblot showing the phosphorylation status of TDP-43 in immortalized lymphocytes from control and sporadic ALS individuals. Cells were seeded at an initial density of 1 x 106 x ml-1 in the absence or presence of compound 1d (20 µM). 24 hours after compound addition, cells were harvested and processed for Western blotting analysis. The plot in the left panel (a) represents the quantification of the bands of 43 KD of pTDP-43 normalized by total-TDP-43. The densitometric analyses represent the mean ± SEM of different observations carried […]
43 expression (b) in lymphoblasts from ALS patients.
(1 picture or pasted object on this page, not shown here)

[11] = target: KEAP1 (Homo sapiens, UniProt Q14145); assay: Differential scanning fluorimetry (DSF) assay; format: binding; conditions: 100 μM; difference from KEAP1 alone (Ti 61.3 °C)
KEAP1, sequence (Q14145 whole entry): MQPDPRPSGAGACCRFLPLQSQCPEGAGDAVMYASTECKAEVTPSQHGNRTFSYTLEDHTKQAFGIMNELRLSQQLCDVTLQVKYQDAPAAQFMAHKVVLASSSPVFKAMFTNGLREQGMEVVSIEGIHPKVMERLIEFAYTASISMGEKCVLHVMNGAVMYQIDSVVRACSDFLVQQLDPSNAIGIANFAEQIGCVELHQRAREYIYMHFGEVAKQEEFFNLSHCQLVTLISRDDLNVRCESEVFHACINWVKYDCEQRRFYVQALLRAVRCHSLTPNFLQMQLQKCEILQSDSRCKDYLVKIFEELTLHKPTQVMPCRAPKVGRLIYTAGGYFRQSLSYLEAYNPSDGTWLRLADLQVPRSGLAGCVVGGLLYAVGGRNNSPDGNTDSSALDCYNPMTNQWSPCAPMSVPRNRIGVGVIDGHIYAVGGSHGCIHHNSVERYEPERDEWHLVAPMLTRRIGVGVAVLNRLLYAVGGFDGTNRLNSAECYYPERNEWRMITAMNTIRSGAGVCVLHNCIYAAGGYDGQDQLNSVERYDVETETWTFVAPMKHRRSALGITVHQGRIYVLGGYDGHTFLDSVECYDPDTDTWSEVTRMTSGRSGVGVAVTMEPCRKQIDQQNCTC

GSK-3β, sequence (P49841 whole entry, species assumed): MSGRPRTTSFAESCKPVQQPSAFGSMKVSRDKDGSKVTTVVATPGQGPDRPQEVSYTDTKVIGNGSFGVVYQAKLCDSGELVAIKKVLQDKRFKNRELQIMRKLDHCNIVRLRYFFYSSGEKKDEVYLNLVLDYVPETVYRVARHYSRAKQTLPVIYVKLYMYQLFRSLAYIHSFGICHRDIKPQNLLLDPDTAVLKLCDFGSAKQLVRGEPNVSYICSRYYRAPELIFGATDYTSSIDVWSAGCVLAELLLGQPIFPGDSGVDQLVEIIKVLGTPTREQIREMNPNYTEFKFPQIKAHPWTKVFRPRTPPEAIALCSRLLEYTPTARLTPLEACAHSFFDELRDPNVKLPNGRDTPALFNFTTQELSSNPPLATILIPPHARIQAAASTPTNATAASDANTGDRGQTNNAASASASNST

EC50 ([1]; 80% MeOH, 30 min, 517 nm, read-out: Radical scavenging activity EC50 (DPPH method)): 9.68 µM
IC50 ([1]; supplementary CSV): 10.4 ± 0.7 µM
activity as an inhibitor of the kinase GSK-3β [2]: negative results
activation of the NRF2 reporter ([6]; in words, 6, 20 and 60 μM): dose-dependent activation
ΔTi (± S.E.M.) [11]: +0.2 (± 0.1) °C
Compound: O=C(CCc1ccc(O)c(O)c1)N1CCCN(S(=O)(=O)c2cccc3cnccc23)CC1 [Compound 1d, 3-(3,4-Dihydroxyphenyl)-1-(4-(isoquinolin-5-ylsulfonyl)-1,4-diazepan-1-yl)propan-1-one]
NRF2 and activity of its signaling pathway [3]: did not produce a significant increase
HMOX1 and NQO1 levels (mRNA and protein) [4]: capable of inducing HMOX1 and NQO1 levels in a very significant way
NEF2L2 mRNA levels [5]: did not produce changes
levels of the NRF2 protein [5]: significantly increased
NRF2 induction, CD (concentration needed to double luciferase expression) ([6]; HEK293T, 3×ARE-LUC): 1 µM
fold induction at 20 µM ([6]; Homo sapiens, 16 h, 20 microM, supplementary CSV, read-out: NRF2 induction @ 20 microM (fold change)): 4.4 ± 0.27
fold induction at 6 µM ([6]; Homo sapiens, HEK-293T, 6 µM, HEK293T, 16 h, read-out: Luciferase assay response): 2.5 ± 0.05
fold induction at 20 µM ([6]; Homo sapiens, HEK-293T, 20 µM, HEK293T, 16 h, read-out: Luciferase assay response): 4.4 ± 0.27
fold induction at 60 µM ([6]; Homo sapiens, HEK-293T, 60 µM, HEK293T, 16 h, read-out: Luciferase assay response): 13.6 ± 1.6
mRNA levels of HMOX1 and NQO1 ([7]; 20 μM, 4, 8 and 24 h): increased the mRNA levels
protein levels of HO-1 and NQO1 ([7]; 20 μM, maximum after 24 h): increase in the protein levels
viability at 16 h, 20 µM ([8]; 20 μM): 100 ± 1.02%
viability at 16 h, 60 µM ([8]; 60 μM): 103.7 ± 0.837%
MTT (%) [9]: < 20%
ability to reduce TDP-43 expression [10]: negative results
ability to reduce aberrant TDP-43 phosphorylation [10]: negative results
